These are literature values, as cited in patent US20150216798A1, “NOVEL ORALLY ADMINISTERED PHARMACEUTICAL FORMULATIONS” (Sanovel Ilac Sanayi Ve Ticaret Anonim Sirketi, priority 2012, published 2015).

For this series the following is noted: after oral administration.

`CN1CC(=O)N2[C@H](c3ccc4c(c3)OCO4)c3[nH]c4ccccc4c3C[C@@H]2C1=O` [Tadalafil, (6R-trans)-6-(1,3-benzodioxol-5-yl)-2,3,6,7,12,12a-hexahydro-2-methyl-pyrazine [1′,2′:1,6]pyrido[3,4-b]indol-1,4-dion]: the duration of effect was at most 36 h and the onset of action was 15 min.
